The record followed here is US8937189B2, “Tri-substituted 2-benzhydryl-5-benzylamino-tetrahydro-pyran-4-ol and 6-benzhydryl-4-benzylamino-tetrahydro-pyran-3-ol analogues, and novel 3,6-disubstituted pyran derivatives” (Wayne State University, priority 2004, dated 2015).

One data set deals with T1, NET (Rattus norvegicus, UniProt Q63380).
T1 construct: from tissue
Briefly: Inhibition of [3H]NE uptake by NET. Type of data set: biochemical. To be noted: text summary of Table 4.

The target in another data set is T2, DAT (Rattus norvegicus, UniProt P23977).
T2 construct: rat striatum was the source for DAT, and cerebral cortex for SERT and NET; from tissue; host or cells: rat striatum (P2 membrane fractions / synaptosomes for uptake)
T2 sequence (P23977 whole entry): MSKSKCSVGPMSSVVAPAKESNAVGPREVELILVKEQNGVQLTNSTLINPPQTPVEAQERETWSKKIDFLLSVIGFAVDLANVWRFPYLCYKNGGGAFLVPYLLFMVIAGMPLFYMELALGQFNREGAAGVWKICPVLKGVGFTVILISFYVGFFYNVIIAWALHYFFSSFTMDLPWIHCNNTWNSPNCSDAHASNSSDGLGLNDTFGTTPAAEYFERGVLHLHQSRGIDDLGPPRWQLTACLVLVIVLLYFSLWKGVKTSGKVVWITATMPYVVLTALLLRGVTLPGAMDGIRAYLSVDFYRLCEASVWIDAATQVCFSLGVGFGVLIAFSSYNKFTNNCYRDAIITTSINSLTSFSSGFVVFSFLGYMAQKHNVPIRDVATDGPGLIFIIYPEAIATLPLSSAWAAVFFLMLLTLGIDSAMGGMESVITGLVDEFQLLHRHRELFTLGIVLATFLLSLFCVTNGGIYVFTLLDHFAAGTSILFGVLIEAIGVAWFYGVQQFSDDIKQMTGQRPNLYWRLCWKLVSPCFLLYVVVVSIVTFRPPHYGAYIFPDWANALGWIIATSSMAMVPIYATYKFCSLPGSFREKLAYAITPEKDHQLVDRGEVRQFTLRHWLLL
Description: Inhibition of [3H]DA uptake by DAT into rat striatal synaptosomes. To be noted: DAT binding vs DA uptake. The class given is biochemical. Here is the method: (§1) Briefly, rat striatum was the source for DAT, and cerebral cortex for SERT and NET. […] Test compounds were dissolved in dimethyl sulfoxide (DMSO) and diluted out in 10% (v/v) DMSO. […] At lease five triplicate concentrations of each test compound were studied, spaced evenly around the IC50 value. For DAT uptake assays, uptake of 50 nM [^3H]DA into rat striatal synaptosomes was measured exactly as described by us previously. Briefly, rat striatal P2 membrane fractions were incubated with test compounds for 8 min followed by the additional presence of [^3H]DA for 4 min at 25?. […] Construction of inhibition curves and dissolvement of test compounds were as described above.

A further data set has as its target T3, SERT (Rattus norvegicus, UniProt P31652).
T3 construct: from tissue
Description: Inhibition of [3H]5-HT uptake by SERT. Type of data set: biochemical. Particulars: text summary of Table 4.

In the next data set the test system is rat NET. Briefly: Inhibition of [3H]nisoxetine binding to NET. Particulars: Table 3; selectivity ratio of IC50 values. How it is done: as §1
The target in the next data set is T4, rat DAT (Rattus norvegicus, UniProt P23977).
T4 construct: rat striatum was the source for DAT, and cerebral cortex for SERT and NET; from tissue; host or cells: rat striatum (P2 membrane fractions / synaptosomes for uptake)
T4 sequence (P23977 whole entry): as above
Briefly: Inhibition of [3H]WIN 35,428 binding to DAT. How it is done:
as §1

The target in a further data set is T5, rat SERT (Rattus norvegicus, UniProt P31652).
T5 construct: rat striatum was the source for DAT, and cerebral cortex for SERT and NET; from tissue; host or cells: rat cerebral cortex
T5 sequence (P31652 whole entry): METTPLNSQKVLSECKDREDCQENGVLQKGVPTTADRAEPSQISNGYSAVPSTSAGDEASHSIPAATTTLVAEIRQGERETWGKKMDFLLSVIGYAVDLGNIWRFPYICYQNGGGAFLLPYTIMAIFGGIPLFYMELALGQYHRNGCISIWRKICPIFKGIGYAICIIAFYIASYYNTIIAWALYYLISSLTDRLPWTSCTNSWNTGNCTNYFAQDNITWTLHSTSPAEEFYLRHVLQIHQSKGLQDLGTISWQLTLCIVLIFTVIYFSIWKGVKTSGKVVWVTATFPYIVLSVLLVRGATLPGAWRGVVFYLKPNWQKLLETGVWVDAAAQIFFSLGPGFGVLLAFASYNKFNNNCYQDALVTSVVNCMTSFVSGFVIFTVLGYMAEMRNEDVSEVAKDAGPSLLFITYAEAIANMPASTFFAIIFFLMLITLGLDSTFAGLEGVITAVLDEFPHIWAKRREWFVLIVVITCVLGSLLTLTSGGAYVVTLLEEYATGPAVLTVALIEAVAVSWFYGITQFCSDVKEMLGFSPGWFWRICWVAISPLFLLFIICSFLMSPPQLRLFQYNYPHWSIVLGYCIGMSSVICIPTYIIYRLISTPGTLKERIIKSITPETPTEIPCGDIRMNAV
Briefly: Inhibition of [3H]citalopram binding to SERT. How it is done: as §1

Where a name gives a salt, the structure may show the parent alone.

T3 sequence (P31652 whole entry): as above
T1 sequence (Q63380 1-617): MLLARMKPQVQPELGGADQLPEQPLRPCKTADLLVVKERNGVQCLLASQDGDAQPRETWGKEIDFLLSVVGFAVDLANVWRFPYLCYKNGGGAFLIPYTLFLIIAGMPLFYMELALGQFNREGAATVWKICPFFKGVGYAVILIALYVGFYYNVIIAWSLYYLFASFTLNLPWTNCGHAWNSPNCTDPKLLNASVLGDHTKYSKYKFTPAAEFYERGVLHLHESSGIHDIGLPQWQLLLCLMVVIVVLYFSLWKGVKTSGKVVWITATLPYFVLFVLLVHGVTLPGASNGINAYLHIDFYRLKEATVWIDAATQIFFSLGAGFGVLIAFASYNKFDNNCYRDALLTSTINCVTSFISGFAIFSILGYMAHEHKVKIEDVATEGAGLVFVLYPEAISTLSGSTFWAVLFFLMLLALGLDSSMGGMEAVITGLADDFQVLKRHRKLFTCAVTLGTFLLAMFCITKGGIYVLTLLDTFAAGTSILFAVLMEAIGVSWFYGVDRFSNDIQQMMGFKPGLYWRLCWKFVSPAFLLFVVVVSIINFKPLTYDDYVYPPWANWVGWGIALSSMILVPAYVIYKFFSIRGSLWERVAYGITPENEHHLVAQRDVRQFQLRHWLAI

As for `O[C@@H]1C[C@@H](C(c2ccccc2)c2ccccc2)OC[C@H]1NCc1ccc(F)cc1` [(−)-29b, (2S,4R,5R)-2-benzhydryl-5-(4-fluoro-benzylamino)-tetrahydro-pyran-4-ol], the “Blockade of NET, in words” value at NET is on record as “selective blockers for NET”.
For `O=[N+]([O-])c1ccc(CN[C@H]2CC[C@@H](C(c3ccccc3)c3ccccc3)OC2)cc1` (relative stereo) [Compound 16d, Cis-(6-benzhydryl-tetrahydropyran-3-yl)-(4-nitro-benzyl)-amine], on DAT, the “Potency in inhibiting binding versus uptake, in words” value is listed as “three fold higher potency in inhibiting binding than uptake”.
In the case of `O[C@@H]1C[C@@H](C(c2ccccc2)c2ccccc2)OC[C@H]1NCc1ccc2[nH]ccc2c1` [(−)-32b, (2S,4R,5R)-2-benzhydryl-5-[(1H-indol-5-ylmethyl)-amino]-tetrahydropyran-4-ol], at NET, the “Blockade of NET, in words” value is “potent blockers”. Also, the “Blockade of SERT, in words” value at SERT is given as “potent blockers”.
Consider `Fc1ccc(CN[C@H]2CC[C@@H](C(c3ccccc3)c3ccccc3)OC2)cc1F` (relative stereo) [Compound 16j, Cis-(6-benzhydryl-tetrahydropyran-3-yl)-(3,4-difluoro-benzyl)-amine], for which, in the data set with rat NET, the “NET binding/DAT binding” value amounted to 1.9.
As to `COc1ccc(CN[C@H]2C[C@H](C(c3ccccc3)c3ccccc3)OC[C@H]2O)cc1` (as salt: oxalate) [(+)-29g, (3S,4S,6R)-6-benzhydryl-4-(4-methoxy-benzylamino)-tetrahydro-pyran-3-ol], the melting point was in the range of 235 to 237 °C.
As for `O[C@@H]1C[C@@H](C(c2ccccc2)c2ccccc2)OC[C@H]1NCc1ccccc1` [(−)-29d, (2S,4R,5R)-2-benzhydryl-5-benzylamino-tetrahydro-pyran-4-ol], the “Blockade of NET, in words” value on NET is recorded as “selective blockers for NET”.
In the case of `COc1ccc(CN[C@@H]2CO[C@H](C(c3ccccc3)c3ccccc3)C[C@H]2O)c(OC)c1` [(−)-29e, (2S,4R,5R)-2-benzhydryl-5-(2,4-dimethoxy-benzylamino)-tetrahydropyran-4-ol], the “Blockade of NET, in words” value on NET was “potent blockers”. Further, the “Blockade of SERT, in words” value on SERT is listed as “potent blockers”.
Turning to `Oc1ccc(CN[C@@H]2CO[C@H](C(c3ccccc3)c3ccccc3)C[C@H]2O)cc1` [(−)-32a, (2S,4R,5R)-2-benzhydryl-5-(4-hydroxy-benzylamino)-tetrahydropyran-4-ol], the “Blockade of NET, in words” value at NET is given as “selective blockers for NET”.
On to `c1ccc(C(c2ccccc2)C2CCC(NCc3cc4ccccc4[nH]3)CO2)cc1` (stereo not drawn) [Compound 16g, Cis-(6-benzhydryl-tetrahydropyran-3-yl)-(2-indole-methyl)-amine], for which the “NET binding/DAT binding” value in the data set on rat NET amounted to 1.8. For the same molecule, on rat DAT (DAT binding, 227 vs. 794 nM), the “Fold more active at DAT compared to 16f” value is 3.5 fold.
`Fc1ccc(CN[C@H]2CC[C@@H](C(c3ccccc3)c3ccccc3)OC2)cc1` (relative stereo) [Compound 16b, Cis-(6-benzhydryl-tetrahydropyran-3-yl)-(4-fluoro-benzyl)-amine]: the “NET binding/DAT binding” value in the data set on rat NET was 1.4.
Same read-out and setting: for `Fc1ccc(CN[C@H]2CCO[C@@H](C(c3ccccc3)c3ccccc3)C2)cc1` (relative stereo) [Compound 7a, cis-(2-benzhydryl-tetrahydropyran-4-yl)-(4-fluorobenzyl)-amine] the value was 3.9.
The same measure, in the same setting: for `Ic1ccc(CN[C@H]2CC[C@@H](C(c3ccccc3)c3ccccc3)OC2)cc1` (relative stereo) [Compound 16m, Cis-(6-benzhydryl-tetrahydropyran-3-yl)-(4-iodo-benzyl)-amine] the value was 0.73.
For the molecule `Oc1ccc(CN[C@H]2CC[C@@H](C(c3ccccc3)c3ccccc3)OC2)cc1` [(−)-37a, cis-(3S,6S)-(6-benzhydryl-tetrahydropyran-3-yl)-(4-hydroxy-benzyl)-amine], the “Blockade of NET, in words” value at NET is listed as “potent blockers”. Also, the “Blockade of SERT, in words” value at SERT was “potent blockers”.
Turning to `Oc1ccc(CN[C@H]2CO[C@@H](C(c3ccccc3)c3ccccc3)C[C@@H]2O)cc1` [(+)-32a, (2R,4S,5S)-2-benzhydryl-5-(4-hydroxy-benzylamino)-tetrahydro-pyran-4-ol], the “Blockade of NET, in words” value at NET is listed as “selective blockers for NET”.
With `c1ccc(C(c2ccccc2)C2CCC(NCc3c[nH]c4ccccc34)CO2)cc1` (stereo not drawn) [Compound 16f, Cis-(6-benzhydryl-tetrahydropyran-3-yl)-(3-indole-methyl)-amine], the “NET binding/DAT binding” value in the data set on rat NET amounted to 2.3.
For the molecule `COc1ccc(CN[C@@H]2CO[C@H](C(c3ccccc3)c3ccccc3)C[C@H]2O)cc1` [(−)-29a, (2S,4R,5R)-2-benzhydryl-5-(4-methoxy-benzylamino)-tetrahydropyran-4-ol], the “Blockade of NET, in words” value at NET was “potent blockers”. Besides, the “Blockade of SERT, in words” value at SERT is given as “potent blockers”.
`Oc1ccc(CN[C@H]2CC[C@@H](C(c3ccccc3)c3ccccc3)OC2)cc1` (relative stereo) (as salt: oxalate) [Compound 16h, Cis-(6-benzhydryl-tetrahydropyran-3-yl)-(4-hydroxy-benzyl)-amine] returned a melting point of 136 to 138 °C.
On to `Clc1ccc(CN[C@H]2CC[C@@H](C(c3ccccc3)c3ccccc3)OC2)cc1Cl` (relative stereo) [Compound 16i, Cis-(6-benzhydryl-tetrahydropyran-3-yl)-(3,4-dichloro-benzyl)-amine], for which the “NET binding/DAT binding” value with rat NET is given as 0.36.
Regarding `COc1cc(CN[C@@H]2CO[C@H](C(c3ccccc3)c3ccccc3)C[C@H]2O)cc(OC)c1` [(−)-29f, (2S,4R,5R)-2-benzhydryl-5-(3,5-dimethoxy-benzylamino)-tetrahydropyran-4-ol], the “Blockade of NET, in words” value on NET was “potent blockers”. Also, the “Blockade of SERT, in words” value on SERT was “potent blockers”.
Take `c1ccc(CN[C@H]2CC[C@@H](C(c3ccccc3)c3ccccc3)OC2)cc1` (relative stereo) [Compound 16k, Cis-(6-benzhydryl-tetrahydropyran-3-yl)-benzyl-amine]: the “NET binding/DAT binding” value in the data set with rat NET worked out at 0.90.
For the molecule `Oc1ccc(CN[C@@H]2CC[C@H](C(c3ccccc3)c3ccccc3)OC2)cc1` [(+)-37a, cis-(3R,6R)-(6-benzhydryl-tetrahydropyran-3-yl)-(4-hydroxy-benzyl)-amine], the “Blockade of NET, in words” value at NET is “selective blockers for NET”.
In the case of `c1ccc(CN[C@H]2CC[C@@H](C(c3ccccc3)c3ccccc3)NC2)cc1` [Compound 1a, reference compound], the IC50 at rat SERT amounted to 2.13 ± 0.11 µM; at rat DAT it was 0.114 µM.
In the case of `N[C@H]1CC[C@@H](C(c2ccccc2)c2ccccc2)OC1` (relative stereo) [Compound 15, Cis-(6-benzhydryl-tetrahydropyran-3-yl)-amine], on rat DAT, the “Activity at the DAT, in words” value was “little or no activity at the DAT”.
With `O[C@@H]1CO[C@H](C(c2ccccc2)c2ccccc2)C[C@H]1NCc1ccccc1` (as salt: oxalate) [(−)-29h, (3S,4R,6S)-6-benzhydryl-4-benzylamino-tetrahydropyran-3-ol], the melting point fell in the range of 259 to 260 °C.
Still for that read-out and setting: for `O[C@@H]1CO[C@@H](C(c2ccccc2)c2ccccc2)C[C@@H]1NCc1ccccc1` (as salt: oxalate) [(+)-29h, (3S,4S,6R)-6-benzhydryl-4-benzylamino-tetrahydropyran-3-ol] the value was 259 to 260 °C.
Consider `c1ccc(C(c2ccccc2)[C@@H]2CC[C@H](NCc3ccc4[nH]ccc4c3)CO2)cc1` (relative stereo) [Compound 16n, Cis-(6-benzhydryl-tetrahydropyran-3-yl)-(1H-iodo-5-ylmethyl)-amine], for which the “NET binding/DAT binding” value in the data set on rat NET is 0.09.

The term melting point denotes the temperature of the solid-liquid transition. One may read the IC50 as the point on the concentration scale where inhibition reaches its midpoint.
